In patent publication US20090105341A1, “PROCESS FOR THE PRODUCTION OF TRANS-10, CIS 12 OCTADECADIENOIC ACID” (Teagasc Dairy Products Research Centre, priority 2005, published 2009):
Like-named read-outs stand apart in the source and are kept apart here.

How the values were obtained:
[1] = system: MCF-7 breast cancer cell line; details: cited from earlier work; for Decrease in cell numbers / cell viability: MCF-7, 20 μg/ml for 8 days, O'Shea et al., 1999
[2] = dairy cows, cited from earlier work
SW480 cells = details: cited from earlier work; for Reduction of cell viability: SW480, Miller et al. (2002); for Effect on SW480 cancer cells: 2003
[3] = system: human colon cancer cells SW480; assay: Anti-proliferative activity of fermented oils, MTS cell viability
Procedure: The probiotic strain Lactobacillus paracasei ssp. paracasei NFBC 338 (Lb. paracasei NFBC 338) was previously isolated from the human gastrointestinal tract (GIT), and obtained from University College Cork, Ireland under a restricted materials transfer agreement. Lb. paracasei NFBC 338 was routinely cultured overnight (˜17 h) in MRS broth (Oxoid Ltd., Hampshire, UK) and incubated at 37° C. under anaerobic conditions using anaerobic jars containing Anaerocult A gas packs (Merck, Darmstedt, Germany). L. lactis carrying the plasmids pNZ44 were routinely cultured in the presence of chloramphenicol (5 μg/ml) as a selective marker. Lb. paracasei NFBC harboring the vector pMSP3535 were routinely cultured with erythromycin (10 μg/ml) as selective marker. E. coli TOP 10 (Invitrogen) harbouring the plasmid pNZ44 was cultured in LB (Luria-Bertani)-media supplemented with chloramphenicol (20 μg/ml). Human colon cancer cells were obtained from the American Type Culture Collection (ATCC, Manassas, Va., USA). The t10, c12 CLA isomer (98%+purity) was obtained from Matreya (Matreya Inc., PA, USA;). Cell culture media and supplements were purchased from Sigma Aldrich Ireland Ltd. (Dublin, Ireland), unless otherwise stated. SW480 cells were maintained in Dulbecco's […] (DMEM) supplemented with 5% (v/v) fetal bovine serum, 0.2 mM L-glutamine, 1 mM HEPES and 1 unit/ml penicillin and streptomycin. SW480 cells were grown in 96 well plates and maintained at 37° C. in a humidified atmosphere and a pH of 7.2-7.4 by a required flow of 95% air and 5% CO2.
To examine the anti-proliferative activity of the oils extracted following fermentation of the cultures (L. lactis pNZ44-coPAI and E. coli pNZ44-coPAI) in respective media containing linoleic acid (0.5 mg/ml), human colon cancer cells SW480 were cultured in the presence of different concentrations of the fermented oils. Initially, 1×10^4 cells were seeded in wells and cultured for 24 h at 37° C. to allow the cells to adhere to the surface prior to treatment with 5-20 μg t10, c12 CLA (from fermented oils and t10, c12 CLA standards in ethanol) and 5-25 μg linoleic acid (control unfermented oil and Sigma standard)/ml of media. […] Control flasks were supplemented with ethanol to a final concentration of 0.1% (v/v). Following incubation for 5 days, cell viability was measured and relative cell number were determined using the MTS method (Promega Corporation, Madison, Wis., USA), a colorimetric method for determining the number of viable cells in proliferation or cytotoxicity assays subsequent to incubation with MTS tetrazolium compound. Following incubation with MTS for 2 h, the absorbance was recorded at 492 nm with a 96-well plate reader. Cell viability (%) after treatment is expressed relative to the ethanol control, which represented 100%.
All figures are related to ethanol controls=100% cell viability.

SMILES: CCCCCC/C=C/C=C\CCCCCCCC(=O)O [c9, t11 CLA, cis-9, trans-11-octadecadienoic acid]
- Decrease in cell numbers / cell viability [1]: 60%
- Effect on milk fat ([2]; abomasal infusion): no effect
- Reduction of cell viability (SW480 cells): 40-52%

SMILES: CCCCC/C=C\C/C=C\CCCCCCCC(=O)O [control-unfermented LA]
- Effect on the cell viability ([3]; SW480, 5-25 μg/ml linoleic acid): only a minor effect

SMILES: CCCCC/C=C\C/C=C\CCCCCCCC(=O)O [linoleic acid, 9 cis, 12 cis-octadecadienoic acid]
- viability at 25 µg/mL ([3]; Homo sapiens, SW480, 120 h, read-out: Cell viability): 93.2%
- Difference in cell viability versus control-linoleic acid (unfermented oil) ([3]; Student's t test): No significant difference
- Effect on SW480 cancer cells (SW480 cells; 16.9 μg/ml media (60.2 μM), Miller et al.): slightly proliferative effect
- Effect on SW480 cancer cells (SW480 cells; 42.8 μg/ml media (152.5 μM), Miller et al.): anti-proliferative effect
- Increase of viability (SW480 cells; SW480, same amount (16 μg/ml), 4 days): 23%

SMILES: CCCCC/C=C\C=C\CCCCCCCCC(=O)O [t10, c12 CLA, trans-10, cis-12 octadecadienoic acid]
- Decrease in cell numbers / cell viability [1]: 15%
- Reduction of viability ([1]; MCF-7, 4 days incubation with 16 μg/ml, Miller et al., 2001): 50-60%
- Difference in cell viability versus L. lactis t10, c12 CLA ([3]; 10-15 μg/ml (p<0.001) and 20 μg/ml (p<0.01)): significant difference
- Difference in cell viability versus E. coli t10, c12 CLA (fermented oil) ([3]; at any concentration, Student's t test): no significant difference
- Decrease in milk fat yield ([2]; 4 days abomasal infusion): 44%
- Reduction in milk fat percentage ([2]; 4 days abomasal infusion): 42%
- Reduction of viability (SW480 cells; SW480, 4 days incubation with 16 μg/ml, Miller et al., 2001): 50-60%
- Reduction of cell viability (SW480 cells): 47-61%
